Consider 2 compounds from patent publication US11278503B2, “Pharmaceutical compositions comprising semifluorinated alkanes for the treatment of contact lense-related conditions” (NOVALIQ GMBH, priority 2017, dated 2022).

This series in a line: Physical properties of the semifluorinated alkanes stated in the description. Format: physicochemical. As to conditions: for refractive index: at 20° C.; for density: at 25° C.

Usually refractive index stands for the speed of light in vacuum divided by its phase velocity in the sample. A word on the density: it is the mass of a sample divided by its volume.

For `CCCCCC(F)(F)C(F)(F)C(F)(F)C(F)(F)F` [F4H5, 1-perfluorobutyl-pentane], the “chemical and physiological inertness (in words)” value is “chemically and physiologically inert”; the “solubility in water (in words)” value was “water-insoluble”; the refractive index is recorded as 1.3204; the density was found to be 1.284 g/mL.

Regarding `CCCCCCCCC(F)(F)C(F)(F)C(F)(F)C(F)(F)C(F)(F)C(F)(F)F` [F6H8, 1-perfluorohexyl-octane], the “chemical and physiological inertness (in words)” value is “chemically and physiologically inert”; the “solubility in water (in words)” value was “water-insoluble”; the refractive index amounted to 1.3432; the density was found to be 1.35 g/mL.
